Here are results for six molecules from patent US20210309619A1, “ISOXAZOLIN-5-ONE DERIVATIVES AND HERBICIDES CONTAINING THE SAME AS ACTIVE INGREDIENTS” (HOKKO CHEMICAL INDUSTRY CO., LTD., priority 2018, published 2021).

Format in all cases: in vivo
In test [1] the test system is Echinochloa crus-galli. Nature of the test: Herbicidal effect test by treatment of rice paddy soil (Test Example 1). As to conditions: 120 g/10 a, treated immediately after seeding, 14 days after treatment. As to the method: (§1) Wagner pots with an area of 1/10000 ares were filled with a paddy soil, and a compound fertilizer (N:P:K=17:17:17) was mixed after water was added, followed by soil puddling. Then, Echinochloa crus-galli, broad leaf weeds (Lindernia pyxidaria and Monochoria vaginalis) and Scirpus juncoides, 30 seeds each, were sown in a depth of 0 to 1 cm. Water was poured immediately after seeding, and the water depth was kept at about 3 cm. A subsequent management was conducted in a glass greenhouse. Immediately after that, emulsions prepared using the compounds in Table 3 below according to Formulation Example 5 were diluted with water, and a certain amount of the water-diluted agent solutions were dropped. A converted amount of the applied active ingredient corresponded to 120 g per 10 ares.
(§2) This test was conducted in a double system per one agent solution concentration area, and the herbicidal rates (%) were determined by the following equation (Math. 1) 14 days after the treatment with the agents.
(§3) Herbicidal Rate (%)={1−(Average Dry Weight (g) of Plant of Treated Area)/(Average Dry Weight (g) of Plant of Untreated Area)}×100 [Math. 1]

The test system of test [2] is Monochoria vaginalis. Described as above. As to conditions: 120 g/10 a, treated immediately after seeding, 14 days after treatment. The procedure: as §1, §2, §3
Test [3] relates to Lindernia pyxidaria. Described as above. As to conditions: 120 g/10 a, treated immediately after seeding, 14 days after treatment. The procedure:
as §1, §2, §3

Test [4] deals with Scirpus juncoides. Described as above. As to conditions: 120 g/10 a, treated immediately after seeding, 14 days after treatment. The procedure:
as §1, §2, §3

For test [5], the system named is Chenopodium album. The test can be described thus: Herbicidal effect test by treatment of stem and leaf in dry field farming (Test Example 4). As to conditions: 120 g/10 a, stem and leaf treatment seven days after seeding, 14 days after treatment. An excerpt:
(§4) Herbicidal Rate (%)={1−(Average Dry Weight (g) of Plant of Treated Area)/(Average Dry Weight (g) of Plant of Untreated Area)}×100 [Math. 1] Pots with a size of 36 cm^2 were filled with a dry field farming soil (alluvium). The soil of the top layer of 1 cm and seeds of weeds, namely southern crabgrass, Echinochloa crus-galli, Chenopodium album and Amaranthus viridis, 20 seeds each, were evenly mixed, and the top layer was gently pressed. Emulsions prepared using the compounds in Table 6 below according to Formulation Example 5 were diluted with water seven days after seeding, and the water-diluted agent solutions were sprayed to the soil surfaces at a ratio of 100 liters per 10 ares. A converted amount of the applied active ingredient corresponded to 120 g per 10 ares. The herbicidal effects were evaluated by the same standard as that in Test Example 1, 14 days after the treatment with the agents. In this regard, the compound numbers in Table 6 are the same as those in Table 1 and Table 2 above.

Test [6] deals with southern crabgrass. The description is as above. As to conditions: 120 g/10 a, stem and leaf treatment seven days after seeding, 14 days after treatment.
Description: as §4

Test [7] has as its system Echinochloa crus-galli. Described as above. As to conditions: 120 g/10 a, stem and leaf treatment seven days after seeding, 14 days after treatment.
Description: as §4

Test [8] concerns Amaranthus viridis. Described as above. As to conditions: 120 g/10 a, stem and leaf treatment seven days after seeding, 14 days after treatment.
Description: as §4

The subject of test [9] is Chenopodium album. The test can be described thus: Herbicidal effect test by treatment of dry field farming soil (Test Example 3). As to conditions: 120 g/10 a, sprayed one day after seeding, 14 days after treatment.
Description: as §4, with “Table 5” for “Table 6”, “water one day” for “water seven days”

For test [10], the system named is southern crabgrass. The description is as above. As to conditions: 120 g/10 a, sprayed one day after seeding, 14 days after treatment.
Description: as §4, with “Table 5” for “Table 6”, “water one day” for “water seven days”

For test [11], the system named is Echinochloa crus-galli. The description is as above. As to conditions: 120 g/10 a, sprayed one day after seeding, 14 days after treatment.
Description: as §4, with “Table 5” for “Table 6”, “water one day” for “water seven days”

For test [12], the system named is Amaranthus viridis. The test is described as above. As to conditions: 120 g/10 a, sprayed one day after seeding, 14 days after treatment.
Description: as §4, with “Table 5” for “Table 6”, “water one day” for “water seven days”

Test [13] has as its system Echinochloa crus-galli. The test can be described thus: Herbicidal effect test by treatment during growing period in paddy rice cultivation (Test Example 2). As to conditions: 120 g/10 a, treated seven days after seeding, 14 days after treatment.
Description: as §3
as §1, with “after addition of water,” for “after water was added,”, “greenhouse. Emulsions” for “greenhouse. Immediately after that, emulsions”, “Table 4” for “Table 3”, “with water seven days after seeding,” for “with water,”, “ares. The test was conducted in a double system per one agent solution concentration area, and the herbicidal rates (%) were determined by the equation (Math. 1) 14 days after the treatment with the agents. In this regard, the compound numbers in Table 4 are the same as those in Table 1 and Table 2 above.” for “ares.”

Test [14] has as its system Monochoria vaginalis. The test is described as above. As to conditions: 120 g/10 a, treated seven days after seeding, 14 days after treatment.
Description: as §3
as §1, with “after addition of water,” for “after water was added,”, “greenhouse. Emulsions” for “greenhouse. Immediately after that, emulsions”, “Table 4” for “Table 3”, “with water seven days after seeding,” for “with water,”, “ares. The test was conducted in a double system per one agent solution concentration area, and the herbicidal rates (%) were determined by the equation (Math. 1) 14 days after the treatment with the agents. In this regard, the compound numbers in Table 4 are the same as those in Table 1 and Table 2 above.” for “ares.”

Test [15] relates to Lindernia pyxidaria. The description is as above. As to conditions: 120 g/10 a, treated seven days after seeding, 14 days after treatment.
Description: as §3
as §1, with “after addition of water,” for “after water was added,”, “greenhouse. Emulsions” for “greenhouse. Immediately after that, emulsions”, “Table 4” for “Table 3”, “with water seven days after seeding,” for “with water,”, “ares. The test was conducted in a double system per one agent solution concentration area, and the herbicidal rates (%) were determined by the equation (Math. 1) 14 days after the treatment with the agents. In this regard, the compound numbers in Table 4 are the same as those in Table 1 and Table 2 above.” for “ares.”

Test [16] has as its system Scirpus juncoides. The description is as above. As to conditions: 120 g/10 a, treated seven days after seeding, 14 days after treatment.
Description: as §3
as §1, with “after addition of water,” for “after water was added,”, “greenhouse. Emulsions” for “greenhouse. Immediately after that, emulsions”, “Table 4” for “Table 3”, “with water seven days after seeding,” for “with water,”, “ares. The test was conducted in a double system per one agent solution concentration area, and the herbicidal rates (%) were determined by the equation (Math. 1) 14 days after the treatment with the agents. In this regard, the compound numbers in Table 4 are the same as those in Table 1 and Table 2 above.” for “ares.”

`COC1CCCC1n1oc(=O)c(Cc2ccccc2N(C(=O)OC(C)C)S(=O)(=O)C(F)(F)F)c1C` (stereo not drawn) [Compound 212]: the “Herbicidal rate, Echinochloa crus-galli” value stood at 100% with Echinochloa crus-galli [1], 90% with Echinochloa crus-galli [7], 90% with Echinochloa crus-galli [11] and 100% with Echinochloa crus-galli [13]. Besides, the “Herbicidal rate, Monochoria vaginalis” value in the test on Monochoria vaginalis [2] is given as 100%; in the test on Monochoria vaginalis [14] it was 90%. The “Herbicidal rate, Lindernia pyxidaria” value was 100% in the test with Lindernia pyxidaria [3] and 80% in the test on Lindernia pyxidaria [15]. The “Herbicidal rate, Scirpus juncoides” value stood at 100% in the test with Scirpus juncoides [4] and 90% with Scirpus juncoides [16]. Further, the “Herbicidal rate, Chenopodium album” value in the test with Chenopodium album [5] was 90%; in the test on Chenopodium album [9], 60%. The “Herbicidal rate, southern crabgrass” value in the test with southern crabgrass [6] worked out at 80%; with southern crabgrass [10], 90%. The results for the “Herbicidal rate, Amaranthus viridis” value with Amaranthus viridis [8] and in the test on Amaranthus viridis [12] were 90% and 60%, respectively.

Regarding `COC1CCCC1n1oc(=O)c(Cc2ccccc2N(C(=O)OCC(C)C)S(=O)(=O)C(F)(F)F)c1C` (stereo not drawn) [Compound 248], the “Herbicidal rate, Echinochloa crus-galli” value stood at 100% in the test with Echinochloa crus-galli [1], 90% in the test with Echinochloa crus-galli [7], 90% in the test with Echinochloa crus-galli [11] and 100% in the test with Echinochloa crus-galli [13]. Besides, the “Herbicidal rate, Monochoria vaginalis” value with Monochoria vaginalis [2] was determined as 100%; in the test with Monochoria vaginalis [14] it was 90%. Moreover, the entries for the “Herbicidal rate, Lindernia pyxidaria” value with Lindernia pyxidaria [3] and with Lindernia pyxidaria [15] were 100% and 80%, respectively. In addition, the entries for the “Herbicidal rate, Scirpus juncoides” value in the test on Scirpus juncoides [4] and with Scirpus juncoides [16] were 100% and 90%, respectively. In addition, the “Herbicidal rate, Chenopodium album” value in the test with Chenopodium album [5] worked out at 90%; in the test with Chenopodium album [9] it was 60%. Moreover, the “Herbicidal rate, southern crabgrass” value is 80% in the test with southern crabgrass [6] and 90% in the test on southern crabgrass [10]. Also, the “Herbicidal rate, Amaranthus viridis” value in the test with Amaranthus viridis [8] was 90%; with Amaranthus viridis [12] it was 60%.

As to `COC1CCCCC1n1oc(=O)c(Cc2ccccc2N(C(=O)OCC(C)C)S(=O)(=O)C(F)(F)F)c1C` (stereo not drawn) [Compound 250], the “Herbicidal rate, Echinochloa crus-galli” value in the test with Echinochloa crus-galli [1] was determined as 100%; in the test with Echinochloa crus-galli [7] it was 90%; in the test with Echinochloa crus-galli [11] it was 90%; in the test with Echinochloa crus-galli [13], 100%. The “Herbicidal rate, Monochoria vaginalis” value in the test on Monochoria vaginalis [2] was 100%; with Monochoria vaginalis [14] it was 90%. The “Herbicidal rate, Lindernia pyxidaria” value in the test with Lindernia pyxidaria [3] came to 100%; with Lindernia pyxidaria [15], 90%. Moreover, the entries for the “Herbicidal rate, Scirpus juncoides” value with Scirpus juncoides [4] and in the test with Scirpus juncoides [16] were 100% and 90%, respectively. For the same molecule, the entries for the “Herbicidal rate, Chenopodium album” value in the test on Chenopodium album [5] and with Chenopodium album [9] were 90% and 60%, respectively. Further, the “Herbicidal rate, southern crabgrass” value with southern crabgrass [6] and in the test with southern crabgrass [10] was 90% in each case. Also, the “Herbicidal rate, Amaranthus viridis” value in the test with Amaranthus viridis [8] and with Amaranthus viridis [12] was 90% each time.

For `COC1CCCC1n1oc(=O)c(Cc2ccccc2N(C(=O)Oc2ccccc2)S(=O)(=O)C(F)(F)F)c1C` (stereo not drawn) [Compound 286], the “Herbicidal rate, Echinochloa crus-galli” value with Echinochloa crus-galli [1] stood at 100%; in the test with Echinochloa crus-galli [7], 90%; in the test on Echinochloa crus-galli [11] it was 90%; with Echinochloa crus-galli [13] it was 100%. The “Herbicidal rate, Monochoria vaginalis” value with Monochoria vaginalis [2] is on record as 100%; in the test with Monochoria vaginalis [14], 90%. The “Herbicidal rate, Lindernia pyxidaria” value in the test on Lindernia pyxidaria [3] is 100%; in the test on Lindernia pyxidaria [15], 80%. Moreover, the figures for the “Herbicidal rate, Scirpus juncoides” value in the test on Scirpus juncoides [4] and with Scirpus juncoides [16] were 100% and 90%, respectively. Besides, the “Herbicidal rate, Chenopodium album” value was 90% in the test on Chenopodium album [5] and 60% in the test on Chenopodium album [9]. Also, the “Herbicidal rate, southern crabgrass” value with southern crabgrass [6] is recorded as 80%; in the test with southern crabgrass [10] it was 90%. Moreover, the “Herbicidal rate, Amaranthus viridis” value in the test with Amaranthus viridis [8] amounted to 90%; with Amaranthus viridis [12] it was 60%.

`COC1CCCC1n1oc(=O)c(Cc2ccccc2N(S(=O)(=O)C(F)(F)F)S(=O)(=O)C(F)(F)F)c1C` (stereo not drawn) [Compound 349, 1,1,1-trifluoro-N-[2-[[(2-methoxycyclopentyl)-3-methyl-5-oxoisoxazol-4-yl]methyl]phenyl]-N-(trifluoromethylsulfonyl)methanesulfonamide]: the “Herbicidal rate, Echinochloa crus-galli” value with Echinochloa crus-galli [1] is on record as 100%; with Echinochloa crus-galli [7], 90%; in the test on Echinochloa crus-galli [11], 90%; with Echinochloa crus-galli [13] it was 100%. Besides, the “Herbicidal rate, Monochoria vaginalis” value is 100% with Monochoria vaginalis [2] and 80% with Monochoria vaginalis [14]. The “Herbicidal rate, Lindernia pyxidaria” value in the test on Lindernia pyxidaria [3] was found to be 100%; with Lindernia pyxidaria [15] it was 80%. Besides, the “Herbicidal rate, Scirpus juncoides” value in the test with Scirpus juncoides [4] and in the test with Scirpus juncoides [16] was 90% each time. Also, the “Herbicidal rate, Chenopodium album” value stood at 80% in the test on Chenopodium album [5] and 60% with Chenopodium album [9]. The “Herbicidal rate, southern crabgrass” value in the test on southern crabgrass [6] is reported as 80%; in the test with southern crabgrass [10] it was 90%. Besides, the “Herbicidal rate, Amaranthus viridis” value in the test with Amaranthus viridis [8] is recorded as 80%; with Amaranthus viridis [12], 90%.

Consider `COC1CCCCC1n1oc(=O)c(Cc2ccccc2N(S(=O)(=O)C(F)(F)F)S(=O)(=O)C(F)(F)F)c1C` (stereo not drawn) [Compound 351, 1,1,1-trifluoro-N-[2-[[(2-methoxycyclohexyl)-3-methyl-5-oxoisoxazol-4-yl]methyl]phenyl]-N-(trifluoromethylsulfonyl)methanesulfonamide], for which the “Herbicidal rate, Echinochloa crus-galli” value in the test with Echinochloa crus-galli [1] came out at 100%; in the test with Echinochloa crus-galli [7], 90%; in the test with Echinochloa crus-galli [11], 90%; in the test with Echinochloa crus-galli [13] it was 100%. In addition, the “Herbicidal rate, Monochoria vaginalis” value with Monochoria vaginalis [2] was 100%; in the test on Monochoria vaginalis [14] it was 80%. The “Herbicidal rate, Lindernia pyxidaria” value in the test on Lindernia pyxidaria [3] was 100%; in the test with Lindernia pyxidaria [15], 80%. The “Herbicidal rate, Scirpus juncoides” value in the test with Scirpus juncoides [4] and in the test with Scirpus juncoides [16] was 90% throughout. Besides, the “Herbicidal rate, Chenopodium album” value with Chenopodium album [5] stood at 80%; in the test on Chenopodium album [9], 60%. Also, the “Herbicidal rate, southern crabgrass” value in the test on southern crabgrass [6] came to 80%; with southern crabgrass [10], 90%. The “Herbicidal rate, Amaranthus viridis” value with Amaranthus viridis [8] worked out at 80%; in the test with Amaranthus viridis [12], 90%.
